The text below walks through data of patent publication US9771331B2, “Methods of identifying neuroprotective compounds for retinal ganglion cells” (THE JOHNS HOPKINS UNIVERSITY, priority 2005, dated 2017).

Entries after “also recorded” stand apart in the source; their conditions may differ.

Experiment [1] concerns retinal ganglion cells (RGCs). The experiment can be described thus: High-content neurite outgrowth screen of purified retinal ganglion cell cultures (number of outgrowth neurons). The experiment is classed as cell-based, rat. The settings on record: for number of outgrowth neurons: 50 ng/ml, 120 hours, versus cultures grown in medium only; for activity compared with TPAO / activity of compounds similar to TPAO: 4 different concentrations. As for the experimental part:
Retinal ganglion cell harvest and immunopurification are performed as described above and in the specific Examples, below. A concentration range of neuroprotective compounds to be validated is prepared and added to test wells (e.g., to achieve final concentrations of 3 μM, 10 μM, 15 μM, 30 μM, 60 μM, 90 μM, 120 μM, and 150 μM in 1% DMSO in each well). For a neuroprotective compound obtained from the […]™ library, for example, 1 mg of desiccated compound can be resuspended in 22.2 μl of DMSO to a final stock solution of 150 mM. […] Afterwards, the solution can be stored in the dark at −20° C.
Neuroprotective compounds and positive control factors are added to the appropriate wells of a 96-well plate (e.g., 25 μl to each well in a 5× concentration prior to the seeding cells in a volume of 100 μl giving a final volume of 125 μl). Cells are incubated, stained, and imaged as described above and in the specific Examples, below. Experiments preferably are performed in duplicate. Following normalization to a negative control (e.g., a well containing medium only), a dose response curve can be plotted. Statistical software (e.g., from SPSS) can be used to perform curve fitting and analysis.
An efficient two-step immunomagnetic purification of a mixed cell population obtained from postnatal rat retina is used to provide a highly enriched population of RGCs for culture. The first step is an immunomagnetic depletion of […] non-RCGS using a cd11b/c. The second step is an immunomagnetic selection of RGCs with an antibody that binds Thy1 on the RGC cell surface. The cells are then released from the magnetic beads by digesting the DNA linker with a low concentration of DNase. Cells are grown on poly-d-lysine/laminin coated plastic plates in a basic medium (Neurobasal media, B27 supplement, glutamine, and penicillin/streptomycin).
(§1) The purified Thy-1 immunoreactive cells are resuspended in growth media (Neurobasal media, B27 supplement, 2 mM glutamine, and 1 U/ml penicillin/streptomycin) and quantified using a hematocytometer. Cells are seeded in 100 μl at a density of 4000 cells/well (150/mm^2) in 96 well culture dishes (Falcon) that had been sequentially coated with poly-d-lysine (0.01 mg/ml) and laminin (0.01 μg/μl) (Sigma). Each well either contains 25 μl of media alone or 5× drug or 5×BDNF and forskolin. Final concentrations are: DMSO (1%), drug (20 to 30 μM), BDNF (50 ng/ml) and forskolin (10 μM). Culture dishes are placed in an incubator maintained at 37° C. and 5% CO2. One hour after seeding, a post-seeding viability is determined by staining with Hoechst and TOTO3 and calculating the percent of live cells.
(§2) After 120 hours of incubation, cells are stained with 5 μM Hoechst and 10 μM Calcein AM (Molecular Probes). Calcein AM (Calcein acetoxymethyl), the dye that is used to stain living cells and their neurites, is a green dye that is permeant to living cells. After internalization by cells, the nonfluorescent calcein AM is converted to fluorescent calcein upon hydrolysis of the acetoymethyl ester by intracellular esterases. Cleavage of the AM group occurs spontaneously when calcein AM is suspended in aqueous solution resulting in a significant increase in background fluorescence over time. TOTO3, which stains the nuclei of dead cells, can be used to determine viability.
Fifteen stereotypic field are autofocus imaged on a Cellomics […]® High Content Scan Reader using epifluorescence and filter sets corresponding to each of the two dyes. This instrument employs a Zeiss fluorescence microscope, a temperature and CO2 live cell chamber, an integrated liquid handling system, and image analysis software that permits staining, imaging, and analysis of the cells and their neurites in approximately 5 hours per plate.

Experiment [2] relates to retinal ganglion cells (RGCs). The experiment can be described thus: Overall cell survival of cultured RGCs after 120 hours. The experiment is classed as cell-based, rat. The settings on record: 50 ng/ml. As to the method:
as §1, §2
Images are processed using the Cellomics Extended Neurite Outgrowth software program. In the initial image processing, cells are identified on the Hoechst channel and selected based on size such that of clusters of cells may be excluded from analysis. In addition, each nuclei on the Hoechst channel is matched to a calcein-stained cell and counted as a “valid neuron” (i.e., a live cell). Neurons can be further selected based on size in the calcein channel. The Extended Neurite Outgrowth program is used to trace neurites extending from these selected neurons. The mean neurite length, mean neurite count, mean number of branch points, and mean number of crosspoints are determined. In addition, the percent of cells with neurite features (e.g., neurite length, neurite count) surpassing a threshold of one standard deviation above the mean neurite characteristic of a set of reference wells containing cells and growth medium without additional growth factors is determined. The “neurite outgrowth” measurement is based on the combined mean neurite length and mean neurite count.

Experiment [3] has as its system RGCs. The settings on record: peptide trophic factors; Meyer-Franke et al. 1995; cited from earlier work.
Experiment [4] concerns retinal ganglion cells (RGCs). The experiment can be described thus: RGCs on glass coverslips in 24-well plates, neurofilament immunostaining, counting neurons with neurite extension. The experiment is classed as cell-based, rat. The settings on record: neurofilament antibody. As for the experimental part: FIG. 4. […] Immunopurified postnatal rat RGCs were cultured in increasing concentrations of TPAO in the presence of 1% DMSO. […] The effect of TPAO is synergistic with both BDNF and forskolin.
Although the developed technique for performing cell culture is effective and objective, it is desirable to assess the outcome of a screen using a different technique. Thus, for example, the technique of culturing cells on poly d-lysine and laminin coated coverslips in 24 well culture dishes under various culture conditions can be followed by immunostaining with anti-neurofilament antibody and quantitative analysis.
After determination of the dose response relationship and concentration at which the neuroprotective compound has it is maximal effect in culture, cells can be cultured on poly d-lysine and laminin coated cover slips (BD Pharmingen) in the presence of the neuroprotective compound, with appropriate positive and negative controls. […]
For example, in one embodiment cells are fixed with 4% paraformaldehyde, washed with PBS, blocked with PBS/0.1% Triton X/20% goat serum, and incubated overnight in PBS/0.1% Triton X/20% goat serum containing 1:100 dilution of rabbit anti-neurofilament (68 kd) antibody (Chemicon). […] The number of cells with neurite outgrowth at 3 different radii is determined (Scholl analysis) and compared using Student t test.

“BDNF: peptide trophic factor known to promote RGC survival; positive control”: the “number of outgrowth neurons” value in experiment [1] is listed as “significantly increased; also recorded: Statistically significant increases”. Besides, the “overall cell survival (number of surviving cells)” value (“overall cell survival” for short) in experiment [2] is recorded as “slight increase in the number of surviving cells that did not reach statistical significance”. The “concentration of maximal effect on RGCs” value in experiment [3] is 10 ng/mL.

Turning to “GDF8: BMP-related myostatin/Gdf8 (Growth and differentiation factor 8)”, the “number of outgrowth neurons” value in experiment [1] is listed as “significantly increased; also recorded: Statistically significant increases”. In addition, the “overall cell survival” value in experiment [2] is recorded as “slight increase in the number of surviving cells that did not reach statistical significance”.

For the molecule `CC(=O)ON=C1CC(C)(C)NC(C)(C)C1` [TPAO, 2,2,6,6-tetramethyl-4-piperidinone O-acetyloxime], in experiment [1], the “effect in combination with BDNF and forskolin” value was “synergistic”. Also, in experiment [1] (dose response 3 μM to 150 μM), the “dose dependence of survival/growth of neurite-bearing RGCs” value is reported as “dose-dependent manner”. In experiment [1] (medium change at 24 hours), the “activity if the medium was changed at 24 hours” value is given as “lost”. Besides, in experiment [4], the “effect on neurons with a neurite extension greater than one cell body in diameter” value was “demonstrated”.

In the case of “TGFβ1: growth factor tested at 50 ng/ml on cultured RGCs”, the “number of outgrowth neurons” value in experiment [1] is “No significant change”. In addition, the “overall cell survival” value in experiment [2] was “no effect”.

In the case of `CC1(C)CC(=NNC(N)=S)CC(C)(C)N1` [2,2,6,6-tetramethyl-4-piperidinone thiosemicarbazone], in experiment [1], the “activity compared with TPAO” value is recorded as “less than that of TPAO” and the “activity of compounds similar to TPAO” value is on record as “showed activity”.

In the case of “TGFα: growth factor tested at 50 ng/ml on cultured RGCs”, the “number of outgrowth neurons” value in experiment [1] is listed as “No significant change”. The “overall cell survival” value in experiment [2] is listed as “no effect”.

On to `CC1(C)CC(=NOC(=O)c2ccccc2)CC(C)(C)N1` [2,2,6,6-tetramethyl-4-piperidinone O-benzoyloxime], for which, in experiment [1], the “activity compared with TPAO” value is “less than that of TPAO” and the “activity of compounds similar to TPAO” value was “showed activity”.

B1: TGFβ2: growth factor tested at 50 ng/ml on cultured RGCs (protein, UniProt P61812 303-414, looked up)
Transforming growth factor …: ALDAAYCFRNVQDNCCLRPLYIDFKRDLGWKWIHEPKGYNANFCAGACPYLWSSDTQHSRVLSLYNTINPEASASPCCVSQDLEPLTILYYIGKTPKIEQLSNMIVKSCKCS
As to B1, the “number of outgrowth neurons” value in experiment [1] is recorded as “No significant change”. For the same molecule, the “overall cell survival” value in experiment [2] is recorded as “no effect”.

B2: CNTF: peptide trophic factor (protein, UniProt P26441 1-200, looked up)
Ciliary neurotrophic factor: MAFTEHSPLTPHRRDLCSRSIWLARKIRSDLTALTESYVKHQGLNKNINLDSADGMPVASTDQWSELTEAERLQENLQAYRTFHVLLARLLEDQQVHFTPTEGDFHQAIHTLLLQVAAFAYQIEELMILLEYKIPRNEADGMPINVGDGGLFEKKLWGLKVLQELSQWTVRSIHDLRFISSHQTGIPARGSHYIANNKKM
Take B2: the “concentration of maximal effect on RGCs” value in experiment [3] is 0.1 ng/mL.

B3: BMP13: bone morphogenetic protein, member of the TGFβ superfamily (protein, UniProt Q6KF10 336-455, looked up)
Growth/differentiation factor …: TAFASRHGKRHGKKSRLRCSKKPLHVNFKELGWDDWIIAPLEYEAYHCEGVCDFPLRSHLEPTNHAIIQTLMNSMDPGSTPPSCCVPTKLTPISILYIDAGNNVVYKQYEDMVVESCGCR
Regarding B3, the “number of outgrowth neurons” value in experiment [1] is “significantly increased; also recorded: Statistically significant increases”. Further, the “overall cell survival” value in experiment [2] was “no effect”.
